Data set [1] deals with CYP3A4. On the set-up: method as in Hao et al.(2008). The settings on record: baculosomes, ref Hao et al.(2008); cited from earlier work.
Substrate in data set [2]: CC(C)=CCC[C@](C)(OC1O[C@H](CO)[C@@H](O)[C@H](O)[C@H]1O)[C@H]1CC[C@]2(C)[C@@H]1[C@H](O)C[C@@H]1[C@@]3(C)CC[C@H](O)C(C)(C)[C@@H]3CC[C@]12C
As to the kind of experiment: Kinetic analysis of CK metabolism by recombinant CYP2C9. The data set is classed as in vitro ADME, human. The note with it: other: recombinant CYP2C9 10 pmol, CK 10–100 μM; pH 7.4; 37.0 °C. As to the method:
The method was conducted according to our previous study with some modifications. The CYP isoform-specific probe reactions used were phenacetin O-deethylation (for CYP1A2), coumarin 7-hydroxylation (for CYP2A6), tolbutamide 4-hydroxylation (for CYP2C9), metoprolol α-hydroxylation (for CYP2D6), chlorzoxazone 6-hydroxylation (for CYP2E1),S-Mephenytoin 4-hydroxylation (for CYP2C19), and midazolam 1-hydroxylation (for CYP3A4). The kinetic study of CK was conducted with HLMs. A 0.2 mL incubation mixture that consisted of CK (as a substrate), the HLMs (0.5 mg/mL) or CYP isoforms (10 pmol), and 0.1 M sodium phosphate buffer (pH 7.4) was pre-warmed for 5 min at 37°C. The reaction was initiated by the addition of 1 mg/mL triphosphopyridine nucleotide (NADPH). […]
The kinetic parameters for the metabolism of CK were determined by incubating increasing concentrations of CK (10–100 μM) at 37°C with the HLMs and NADPH under the incubation conditions as described in detail previously. The equation of CK reaction velocity (V) in the HLMs or CYP isoforms is expressed as V = (C0–Ct)/T/Cp, where C0and Ct are the initial and final concentrations of CK in the incubation solution, respectively, T is the incubation time (min), and Cp is the protein concentration (mg/mL or nmol). All values were expressed as the mean±standard deviation (SD). […]

Turning to `CC(C)=CCC[C@](C)(O)[C@H]1CC[C@]2(C)[C@@H]1[C@H](O)C[C@@H]1[C@@]3(C)CC[C@H](O[C@@H]4O[C@H](CO)[C@@H](O)[C@H](O)[C@H]4O)C(C)(C)[C@@H]3CC[C@]12C` [Rh2, reference compound], in data set [1], the CYP3A4 inhibition entry is “moderate”.

B1: recombinant CYP2C9 (Homo sapiens) (protein)
chain: MDSLVVLVLCLSCLLLLSLWRQSSGRGKLPPGPTPLPVIGNILQIGIKDISKSLTNLSKVYGPVFTLYFGLKPIVVLHGYEAVKEALIDLGEEFSGRGIFPLAERANRGFGIVFSNGKKWKEIRRFSLMTLRNFGMGKRSIEDRVQEEARCLVEELRKTKASPCDPTFILGCAPCNVICSIIFHKRFDYKDQQFLNLMEKLNENIKILSSPWIQICNNFSPIIDYFPGTHNKLLKNVAFMKSYILEKVKEHQESMDMNNPQDFIDCFLMKMEKEKHNQPSEFTIESLENTAVDLFGAGTETTSTTLRYALLLLLKHPEVTAKVQEEIERVIGRNRSPCMQDRSHMPYTDAVVHEVQRYIDLLPTSLPHAVTCDIKFRNYLIPKGTTILISLTSVLHDNKEFPNPEMFDPHHFLDEGGNFKKSKYFMPFSAGKRICVGEALAGMELFLFLTSILQNFNLKSLVDPKNLDTTPVVNGFASVPPFYQLCFIPV
notes: purchased Cypex Ltd. (U.K.)
Consider B1, for which the Km (usually the substrate concentration at which the rate is half of its maximum) in data set [2] was determined as 34.63 ± 10.48 µM.
